# Assay results taken from patent US20080269241A1, “BICYCLIC AMINOPROPYL TETRAHYDRO-PYRAZOLO-PYRIDINE MODULATORS OF CATHEPSIN S” (priority 2007, published 2008).
# Molecular target: T1, human cathepsin S (CatS) (Homo sapiens, UniProt P25774)
# T1 construct: made in house; host or cells: baculovirus system (insect cells)
# Experiment: Recombinant human cathepsin S (CatS) fluorogenic substrate inhibition assay
# Assay type: biochemical
# Conditions: recombinant human CatS, 10 μM Z-Valine-Valine-Arginine-AMC, pH 5.0; average of results obtained; read-out: CatS IC50
# Experimental: Recombinant human cathepsin S (CatS) was expressed in the baculovirus system and purified in one step with a thiopropyl-sepharose column. […] The assay is run in 150 mM sodium acetate pH 5.0 containing 1.5 mM DTT and 150 mM NaCl. […] Measurements are taken every min for 20 min. The rate is calculated from the slope of the increase in fluorescence and the percent inhibition is calculated from this.
# T1 sequence (P25774 115-331): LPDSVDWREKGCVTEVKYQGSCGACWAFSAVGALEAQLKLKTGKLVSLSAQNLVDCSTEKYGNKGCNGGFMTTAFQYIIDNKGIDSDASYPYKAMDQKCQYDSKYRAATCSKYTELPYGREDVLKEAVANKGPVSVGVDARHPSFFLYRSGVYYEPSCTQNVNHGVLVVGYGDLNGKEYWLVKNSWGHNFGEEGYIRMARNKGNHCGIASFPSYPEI
row,SMILES,IC50
1,"CS(=O)(=O)N1CCc2c(c(-c3ccc(C(F)(F)F)c(CNC(=O)N4CCOCC4)c3)nn2CCCN2CCC(N3CCCC3=O)CC2)C1 [Example 45, Morpholine-4-carboxylic acid 5-(5-methanesulfonyl-1-{3-[4-(2-oxo-pyrrolidin-1-yl)-piperidin-1-yl]-propyl}-4,5,6,7-tetrahydro-1H-pyrazolo[4,3-c]pyridin-3-yl)-2-trifluoromethyl-benzylamide]",80 nM
2,"CS(=O)(=O)N1CCc2c(c(-c3ccc(Cl)c(NS(=O)(=O)c4ccccc4)c3)nn2CCCN2CCN(c3cccc(Cl)c3)CC2)C1 [Example 204, N-[2-Chloro-5-(1-{3-[4-(3-chloro-phenyl)-piperazin-1-yl]-propyl}-5-methanesulfonyl-4,5,6,7-tetrahydro-1H-pyrazolo[4,3-c]pyridin-3-yl)-phenyl]-benzenesulfonamide]",700 nM
3,"CS(=O)(=O)N1CCc2c(c(-c3ccc(C(F)(F)F)c(CNC(=O)c4ccc[nH]4)c3)nn2CC(O)CN2CCC(N3CCCC3=O)CC2)C1 (stereo not drawn) [Example 124, 1H-Pyrrole-2-carboxylic acid 5-(1-{2-hydroxy-3-[4-(2-oxo-pyrrolidin-1-yl)-piperidin-1-yl]-propyl}-5-methanesulfonyl-4,5,6,7-tetrahydro-1H-pyrazolo[4,3-c]pyridin-3-yl)-2-trifluoromethyl-benzylamide]",180 nM
4,"CC(C)CC(=O)NCc1cc(-c2nn(CC(O)CN3CCC(N4CC(O)CC4=O)CC3)c3c2CN(S(C)(=O)=O)CC3)ccc1C(F)(F)F (stereo not drawn) [Example 253, N-[5-(1-{2-Hydroxy-3-[4-(4-hydroxy-2-oxo-pyrrolidin-1-yl)-piperidin-1-yl]-propyl}-5-methanesulfonyl-4,5,6,7-tetrahydro-1H-pyrazolo[4,3-c]pyridin-3-yl)-2-trifluoromethyl-benzyl]-3-methyl-butyramide]",90 nM
5,"CS(=O)(=O)N1CCc2c(c(-c3ccc(Cl)c(CNC(=O)c4ccc(F)cc4)c3)nn2CC(O)CN2CCC(N3CCOCC3)CC2)C1 (stereo not drawn) [Example 79, N-(2-Chloro-5-{1-[2-hydroxy-3-(4-morpholin-4-yl-piperidin-1-yl)-propyl]-5-methanesulfonyl-4,5,6,7-tetrahydro-1H-pyrazolo[4,3-c]pyridin-3-yl}-benzyl)-4-fluoro-benzamide]",60 nM
6,"CS(=O)(=O)N1CCc2c(c(-c3ccc(C(F)(F)F)c(CNC(=O)c4ccccn4)c3)nn2CC(O)CN2CCC(N3CCCC3=O)CC2)C1 (stereo not drawn) [Example 53, Pyridine-2-carboxylic acid 5-(1-{2-hydroxy-3-[4-(2-oxo-pyrrolidin-1-yl)-piperidin-1-yl]-propyl}-5-methanesulfonyl-4,5,6,7-tetrahydro-1H-pyrazolo[4,3-c]pyridin-3-yl)-2-trifluoromethyl-benzylamide]",190 nM
7,"CN(C)CCC(=O)NCc1cc(-c2nn(CCCN3CCC(N4CCCC4=O)CC3)c3c2CN(S(C)(=O)=O)CC3)ccc1C(F)(F)F [Example 181, 3-Dimethylamino-N-[5-(5-methanesulfonyl-1-{3-[4-(2-oxo-pyrrolidin-1-yl)-piperidin-1-yl]-propyl}-4,5,6,7-tetrahydro-1H-pyrazolo[4,3-c]pyridin-3-yl)-2-trifluoromethyl-benzyl]-propionamide]",1520 nM
8,"CS(=O)(=O)c1csc(C(=O)NCc2cc(-c3nn(CC(O)CN4CCC(N5CCCC5=O)CC4)c4c3CN(S(C)(=O)=O)CC4)ccc2C(F)(F)F)c1Cl (stereo not drawn) [Example 217, 3-Chloro-4-methanesulfonyl-thiophene-2-carboxylic acid 5-(1-{2-hydroxy-3-[4-(2-oxo-pyrrolidin-1-yl)-piperidin-1-yl]-propyl}-5-methanesulfonyl-4,5,6,7-tetrahydro-1H-pyrazolo[4,3-c]pyridin-3-yl)-2-trifluoromethyl-benzylamide]",600 nM
9,"CS(=O)(=O)N1CCc2c(c(-c3ccc(C(F)(F)F)c(CNC(=O)CC4CCCC4)c3)nn2CCCN2CCC(N3CCCC3=O)CC2)C1 [Example 108, 2-Cyclopentyl-N-[5-(5-methanesulfonyl-1-{3-[4-(2-oxo-pyrrolidin-1-yl)-piperidin-1-yl]-propyl}-4,5,6,7-tetrahydro-1H-pyrazolo[4,3-c]pyridin-3-yl)-2-trifluoromethyl-benzyl]-acetamide]",80 nM
10,"CS(=O)(=O)N1CCc2c(c(-c3ccc(C(F)(F)F)c(CNC(=O)/C=C/c4ccccc4)c3)nn2CC(O)CN2CCC(N3CCCC3=O)CC2)C1 (stereo not drawn) [Example 55, N-[5-(1-{2-Hydroxy-3-[4-(2-oxo-pyrrolidin-1-yl)-piperidin-1-yl]-propyl}-5-methanesulfonyl-4,5,6,7-tetrahydro-1H-pyrazolo[4,3-c]pyridin-3-yl)-2-trifluoromethyl-benzyl]-3-phenyl-acrylamide]",320 nM

# Further lines, results first:
row,IC50,SMILES
1,60 nM,"CS(=O)(=O)N1CCc2c(c(-c3ccc(C(F)(F)F)c(CNC(=O)c4cc5ccccc5s4)c3)nn2CC(O)CN2CCC(N3CCCC3=O)CC2)C1 (stereo not drawn) [Example 106, Benzo[b]thiophene-2-carboxylic acid 5-(1-{2-hydroxy-3-[4-(2-oxo-pyrrolidin-1-yl)-piperidin-1-yl]-propyl}-5-methanesulfonyl-4,5,6,7-tetrahydro-1H-pyrazolo[4,3-c]pyridin-3-yl)-2-trifluoromethyl-benzylamide]"
2,10 nM,"CC(C)=CC(=O)NCc1cc(-c2nn(CC(O)CN3CCC(c4ccccn4)CC3)c3c2CN(S(C)(=O)=O)CC3)ccc1C(F)(F)F (stereo not drawn) [Example 263, 3-Methyl-but-2-enoic acid 5-{1-[2-hydroxy-3-(3′,4′,5′,6′-tetrahydro-2′H-[2,4′]bipyridinyl-1′-yl)-propyl]-5-methanesulfonyl-4,5,6,7-tetrahydro-1H-pyrazolo[4,3-c]pyridin-3-yl}-2-trifluoromethyl-benzylamide]"
3,30 nM,"CC(C)=CC(=O)NCc1cc(-c2nn(CCCN3CCC(N4CCCC4=O)CC3)c3c2CN(S(C)(=O)=O)CC3)ccc1C(F)(F)F [Example 42, 3-Methyl-but-2-enoic acid 5-(5-methanesulfonyl-1-{3-[4-(2-oxo-pyrrolidin-1-yl)-piperidin-1-yl]-propyl}-4,5,6,7-tetrahydro-1H-pyrazolo[4,3-c]pyridin-3-yl)-2-trifluoromethyl-benzylamide]"
4,10 nM,"COc1ccccc1C1CCN(CC(O)Cn2nc(-c3ccc(C(F)(F)F)c(CNC(=O)C=C(C)C)c3)c3c2CCN(S(C)(=O)=O)C3)CC1 (stereo not drawn) [Example 264, 3-Methyl-but-2-enoic acid 5-(1-{2-hydroxy-3-[4-(2-methoxy-phenyl)-piperidin-1-yl]-propyl}-5-methanesulfonyl-4,5,6,7-tetrahydro-1H-pyrazolo[4,3-c]pyridin-3-yl)-2-trifluoromethyl-benzylamide]"
5,40 nM,"CS(=O)(=O)N1CCc2c(c(-c3ccc(C(F)(F)F)c(CNC(=O)c4cccs4)c3)nn2CC(O)CN2CCC(N3CCCC3=O)CC2)C1 (stereo not drawn) [Example 105, Thiophene-2-carboxylic acid 5-(1-{2-hydroxy-3-[4-(2-oxo-pyrrolidin-1-yl)-piperidin-1-yl]-propyl}-5-methanesulfonyl-4,5,6,7-tetrahydro-1H-pyrazolo[4,3-c]pyridin-3-yl)-2-trifluoromethyl-benzylamide]"
